Data from PubChem BioAssay AID743098 (Vanderbilt Specialized Chemistry Center, 2013).
The source made the active and inactive calls. No rule for the calls is given here.

Target: Muscarinic acetylcholine receptor M1 (Homo sapiens) (UniProt P11229)
Assay: M1 receptor allosteric modulation check, selectivity assay for M5 NAM discovery project, cell-based, human M1 (AID 743098)
Settings: CHO-K1 hM1 calcium flux, Fluo-4, ACh EC20; at 30 µM; stronger effect = lower value

Muscarinic acetylcholine receptor M1 (Homo sapiens), sequence (P11229 whole entry, looked up): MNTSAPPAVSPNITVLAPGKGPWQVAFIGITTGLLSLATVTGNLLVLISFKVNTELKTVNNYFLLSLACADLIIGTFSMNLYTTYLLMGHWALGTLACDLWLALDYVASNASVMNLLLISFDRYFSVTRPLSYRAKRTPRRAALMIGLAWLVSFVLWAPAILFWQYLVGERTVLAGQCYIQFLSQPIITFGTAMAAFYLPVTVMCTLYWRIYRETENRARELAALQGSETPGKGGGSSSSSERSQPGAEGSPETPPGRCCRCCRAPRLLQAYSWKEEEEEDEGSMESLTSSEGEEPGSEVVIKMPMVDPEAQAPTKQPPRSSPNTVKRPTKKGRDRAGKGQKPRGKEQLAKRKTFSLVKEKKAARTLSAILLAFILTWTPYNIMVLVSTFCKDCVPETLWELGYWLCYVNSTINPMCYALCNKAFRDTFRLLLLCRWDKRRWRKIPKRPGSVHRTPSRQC

response, % of max ACh, inactive:
O=C(c1ccc(F)c(F)c1)N1CCN2C(=O)c3ccccc3C12c1ccccc1 (stereo not given) 87.2%
O=C(c1ccc(F)c(F)c1)N1CCN2C(=O)c3ccccc3[C@@]12c1ccc(Cl)cc1 66.4%
O=C(c1cc(F)cc(F)c1)N1CCN2C(=O)c3ccccc3C12c1ccc(Cl)cc1 (stereo not given) 79.9%
O=C(c1ccc(F)c(F)c1)N1CCN2C(=O)c3ccccc3C12c1ccc(Cl)cc1 (stereo not given) 80.5%
O=C(c1ccc(F)cc1)N1CCN2C(=O)c3ccccc3C12c1ccccc1 (stereo not given) 83.6%
